For data set [1], the target named is mitochondrial F1Fo-ATPase. The conditions noted are these: cited from earlier work.
The test system of data set [2] is central benzodiazepine receptor. The note with it: cited from earlier work.
In data set [3] the target is peripheral benzodiazepine receptor ("PBR") (Homo sapiens, UniProt P30536). The conditions noted are these: cited from earlier work.
Data set [4] is described as follows: Water solubility at 37° C. The conditions noted are these: versus solvated Bz-423.
The test system of data set [5] is cells. Put plainly: Cell viability. The data set is classed as cell-based. The note with it: compared with solvated Bz-423 (FIG. 13).
The nature of data set [6]: Simulated gastric fluid solubility at 37° C. The format is physicochemical. The note with it: versus solvated Bz-423.
In data set [7] the target is T1, mitochondrial F0F1 ATPase (Homo sapiens, UniProt P48047). Briefly: ATP hydrolysis. The note with it: compared with solvated Bz-423 (FIG. 11). The data set is classed as biochemical.
The target of data set [8] is T1, mitochondrial F0F1 ATPase. Briefly: ATP synthesis. The note with it: compared with solvated Bz-423 (FIG. 12). The data set is classed as biochemical.
For data set [9], the system named is rodents. The conditions noted are these: two daily doses; cited from earlier work.

Sequence of peripheral benzodiazepine receptor ("PBR") (P30536 whole entry, species assumed): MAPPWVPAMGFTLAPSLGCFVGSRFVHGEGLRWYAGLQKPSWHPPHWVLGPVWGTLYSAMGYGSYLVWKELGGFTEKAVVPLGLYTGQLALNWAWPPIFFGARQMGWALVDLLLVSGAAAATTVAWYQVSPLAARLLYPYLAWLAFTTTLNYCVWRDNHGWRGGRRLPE

The term Ki denotes the equilibrium dissociation constant of an inhibitor or competing ligand from its target. A word on the Kd: it is the equilibrium constant for the complex coming apart. With `CN1C(=O)C(Cc2ccc3ccccc3c2)N=C(c2ccc(O)cc2)c2cc(Cl)ccc21` (stereo not shown) [Bz-423], the Ki in [1] is roughly 9000 nM. For the same molecule, in [2], the “binding to the central benzodiazepine receptor” value is reported as “prevents binding to the central benzodiazepine receptor”. In [3], the dissociation constant Kd was roughly 1000 nM.

For `CN1C(=O)C(Cc2ccc3ccccc3c2)N=C(c2ccc(O)cc2)c2cc(Cl)ccc21` (stereo not shown) [anhydrous BZ-423 ball milled], the “water solubility, comparison in words” value in data set [4] is “more soluble than solvated Bz-423”. For the same molecule, the cell viability result in data set [5] is recorded as “not affecting cell viability”. In addition, in data set [6], the “solubility in simulated gastric fluid, comparison in words” value was “more soluble than solvated Bz-423”. For the same molecule, in [7], the ATP hydrolysis result was “capable of inhibiting ATP hydrolysis”. In addition, the ATP synthesis result in [8] is “not inhibiting cell synthesis”.

Broadly, the IC50 is the concentration that gives 50% inhibition. In general, LD50 refers to the dose expected to kill half of the subjects tested. With `CC[C@H]1/C=C/C=C/C[C@@H](C)[C@H](O)[C@@](C)(O)C(=O)[C@@H](C)[C@H](O)[C@@H](C)C(=O)[C@@H](C)[C@H](O)[C@@H](C)/C=C/C(=O)O[C@@H]2[C@H](C)[C@H](CC1)O[C@]1(CC[C@H](C)[C@H](C[C@@H](C)O)O1)[C@H]2C` [oligomycin, reference compound], in data set [1], the IC50 was 10 nM. Moreover, the LD50 in data set [9] is recorded as 0.5 mg/kg.

These data come from patent US7994313B2 (priority 2005, dated 2011).
